Entries after “also recorded” stand apart in the source; their conditions may differ.
Experiments:
[1] = system: BRD2BD1, BRD2BD2, BRD3BD1, BRD3BD2, BRD4BD1, BRD4BD2 EGFP constructs; assay: EGFP/mCherry reporter assay on individual BET bromodomains (flow cytometry); format: cell-based, human
Protocol: (§1) IKZF1A, BRD2BD1, BRD2BD2, BRD3BD1, BRD3BD2, BRD4BD1, and BRD4BD2 were subcloned into mammalian pcDNA5/FRT Vector (Ampicillin and Hygromycin B resistant) modified to contain MCS-eGFP-P2A-mCherry. […] Following 2-3 passage cycle FACS (FACSAria II, BD) was used to enrich for cells expressing eGFP and mCherry.
(§2) Signal from 5000 cells per well was acquired in singlicate or duplicate and the eGFP and mCherry florescence monitored. Data was analyzed using FlowJo (FlowJo, LCC). […] The eGFP protein abundance relative to mCherry was then quantified as a ten-fold amplified ratio for each individual cell using the formula: 10×eGFP/mCherry. The median of the ratio was then calculated per set, normalized to the median of the DMSO ratio, and is denoted as relative abundance. Standard deviation is calculated from four replicates (n=4) unless described otherwise.

[2] = system: BRD2 and BRD3 in HEK293T cells; assay: Immunoblot for cellular degradation of BRD2 and BRD3; format: cell-based, human
Protocol: (§3) HEK293T cells were treated with increasing concentrations of ZXH-03-26.

[3] = molecular target: T1, endogenous BRD4 in HEK293T cells (Homo sapiens, UniProt O60885); assay: Immunoblot for cellular degradation of endogenous BRD4; format: cell-based; conditions: 5 hours
T1 construct: retains activity on endogenous full length BRD4; endogenous in cells; host or cells: HEK293T
Protocol: as §3

[4] = molecular target: T2, BRD4BD1-EGFP (Homo sapiens, UniProt O60885+Q96SW2); assay: BRD4BD1-EGFP/mCherry reporter cellular degradation assay (flow cytometry); format: cell-based; conditions: 5 h treatment
T2 construct: expressed in transfected cells
Protocol: Reporter cells that stably express BRD4BD1-EGFP followed by a P2A splice site separated mCherry, were treated with increasing concentrations of dBET molecules (FIG. 3A-FIG. 3F). […] IKZF1A, BRD2BD1, BRD2BD2, BRD3BD1, BRD3BD2, BRD4BD1, and BRD4BD2 were subcloned into mammalian pcDNA5/FRT Vector (Ampicillin and Hygromycin B resistant) modified to contain MCS-eGFP-P2A-mCherry. […] Following 2-3 passage cycle FACS (FACSAria II, BD) was used to enrich for cells expressing eGFP and mCherry.
as §2

[5] = molecular target: T3, IKZF1Δ-CRBN complex formation (Homo sapiens, UniProt Q13422+Q96SW2, DEL197-239); assay: CRBN-IKZF1Δ binding assay (TR-FRET); conditions: IKZF1Δ and DDB1ΔB-CRBN
T3 construct: made in house; host or cells: Trichoplusia ni High-Five insect cells (baculovirus)
Protocol: Compounds in CRBN mutants dimerization assay were dispensed as described above into 200 nM His6-DDB1-His6-CRBNmutants or 200 nM His6-DDB1ΔB-His6-CRBNWT, 100 nM BRD4BD1-BODIPY-SpyCatcher and 2 nM terbium-anti-HIS Ab (Invitrogen) in a buffer containing 50 mM Tris pH 7.5, 100 mM NaCl, 0.1% Pluronic F-68 solution (Sigma) and 2% DMSO (4% DMSO final). Before TR-FRET measurements were conducted, the reactions were incubated for 15 min at RT. […] The TR-FRET signal of each data point was extracted by calculating the 520/490 nm ratio. […] The peak height of TR-FRET dBET dose response data was calculated in GraphPad Prism 7 using Area Under Curve analysis for three independent replicates (n=3) and the mean peak height and standard deviation calculated.
The standard deviation in IKZF1A TR-FRET compound titrations was calculated from three biological replicates (n=3) as an average of 5 technical replicates per well per experiment, or as an average of 5 technical replicates of single experiment for unlabelled protein titrations.

[6] = system: IKZF1, IKZF3 and ZFP91 in MM.1s cells; assay: Quantitative proteomics (TMT LC-MS3) in MM.1s cells; format: cell-based, human; conditions: 1 μM, five hours
Protocol: A micro-BCA assay (Pierce) was used to determine the final protein concentration in the cell lysate. […] Proteins were precipitated using methanol/chloroform. In brief, four volumes of methanol were added to the cell lysate, followed by one volume of chloroform, and finally three volumes of water.

[7] = molecular target: T4, IKZF1Δ-EGFP fusion protein (Homo sapiens, UniProt Q13422+Q96SW2, DEL197-239); assay: IKZF1Δ-EGFP fusion protein degradation reporter assay (flow cytometry); format: cell-based; conditions: HEK293T cells
T4 construct: expressed in transfected cells; HEK293T cells
Protocol: as §1, §2

T3 sequence (Q96SW2 whole entry, stated change not applied): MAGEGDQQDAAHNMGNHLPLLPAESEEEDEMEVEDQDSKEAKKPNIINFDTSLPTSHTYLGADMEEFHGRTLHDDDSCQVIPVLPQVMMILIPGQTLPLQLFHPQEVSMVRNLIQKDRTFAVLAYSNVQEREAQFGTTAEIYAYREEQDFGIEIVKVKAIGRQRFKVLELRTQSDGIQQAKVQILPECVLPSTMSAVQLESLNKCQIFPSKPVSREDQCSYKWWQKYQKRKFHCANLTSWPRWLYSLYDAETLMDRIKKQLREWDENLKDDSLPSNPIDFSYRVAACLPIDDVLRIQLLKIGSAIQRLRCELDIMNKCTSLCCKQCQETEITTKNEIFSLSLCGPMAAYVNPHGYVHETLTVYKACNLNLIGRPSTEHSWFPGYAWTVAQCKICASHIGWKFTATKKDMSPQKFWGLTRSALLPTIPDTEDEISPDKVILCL
T3 sequence (Q13422 with tags, fused parts or gaps DEL197-239 limits assumed): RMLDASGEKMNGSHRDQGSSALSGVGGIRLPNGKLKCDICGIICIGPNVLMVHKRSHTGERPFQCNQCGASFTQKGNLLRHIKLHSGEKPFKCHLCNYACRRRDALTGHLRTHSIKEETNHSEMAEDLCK

Compound: COC(=O)C[C@@H]1N=C(c2ccc(Cl)cc2)c2c(sc(C(=O)NCCCCCNc3cccc4c3C(=O)N(C3CCC(=O)NC3=O)C4=O)c2C)-n2c(C)nnc21 (stereo partly drawn) [ZXH-03-26]
- concentrations at which degradation of BRD2 or 3 is spared [1]: > 10 µM
- selectivity of degradation across BET bromodomains (in words) ([1]; BRD2/3/4 BD1 and BD2): activity exclusively on the first bromodomain of BRD4; also recorded: selectively targets BRD4 for degradation and spares BRD2 and BRD3
- degradation of BRD2 and BRD3 (in words) [2]: inactive on BRD2 and BRD3
- degradation of endogenous BRD4 (in words) [3]: degrades endogenous BRD4 with comparable efficacy compared to the best pan-BET degrader dBET6
- degradation of BRD4BD1 (in words) [4]: active on BRD4BD1
- DC50 ([4]; GFP/mCherry ratio, read-out: DC50/5h (half-maximal degradation after 5 hours of treatment), BRD4BD1): ~5 nM

Compound: COC(=O)C[C@@H]1N=C(c2ccc(Cl)cc2)c2c(sc(C(=O)NCCCCCCCCNc3cccc4c3C(=O)N(C3CCC(=O)NC3=O)C4=O)c2C)-n2c(C)nnc21 (stereo partly drawn) [dBET70, reference compound]
- induction of IKZF1-CRBN complex formation / IKZF1 binding (in words) [5]: pronounced complex formation
- co-degradation of CRBN-lenalidomide neo-substrates IKZF1, IKZF3 and ZFP91 [6]: pronounced co-degradation of CRBN-lenalidomide neo-substrates IKZF1, IKZF3 and ZFP91
- cellular IKZF1 degradation (in words) [7]: equipotent to lenalidomide
